Tests used:
[1] = Study B: randomized, double-blind, placebo-controlled study, acute treatment of a single migraine attack; type: in vivo, human; conditions: for Absence of Most-Bothersome Migraine Associated Symptom at 2 hours after the initial dose: Odds Ratio (95% CI) / Pain Freedom at 2 hours after the initial dose: Odds Ratio (95% CI): mITT
Experimental: (§1) Study A and Study B were multicenter, randomized, double-blind, placebo-controlled, parallel-group, studies designed to evaluate the efficacy, safety, and tolerability of three doses of ubrogepant (25 mg, 50 mg and 100 mg) compared to placebo for the acute treatment of a single migraine attack. In Study A, patients were randomized (1:1:1) to 1 of 3 treatment groups: placebo, ubrogepant 50 mg, or ubrogepant 100 mg. In Study B, patients were randomized (1:1:1) to 1 of 3 treatment groups: placebo, ubrogepant 25 mg, or ubrogepant 50 mg. Patients were stratified by their previous response to triptans (triptan responder, triptan insufficient responder, triptan naïve) and their current use of prophylactic concomitant medication for migraine (yes/no). To be randomized, eligible patients had to be 18 to 75 years of age (inclusive), have a history of migraine with or without aura for at least 1 year consistent with a diagnosis according to the International Classification of Headache Disorders criteria, 3rd edition, beta version, and had to have experienced between 2 to 8 migraine attacks with moderate to severe headache pain in each of the 3 months before Screening (Visit 1). Patients who had clinically significant hematologic, endocrine, cardiovascular, cerebrovascular, pulmonary, renal, hepatic, gastrointestinal, or neurologic disease were excluded from the study. Study patients randomized to a treatment group had up to 60 days to treat a single qualifying migraine attack of moderate or severe pain intensity at home. In Study A, a total of 1672 patients were randomized to double-blind treatment (ITT population), and 1436 patients took at least 1 dose of double-blind IP (safety population). A total of 1327 treated patients recorded a baseline migraine headache severity measurement and at least 1 postdose migraine headache severity or migraine-associated symptom measurement within 2 hours after dosing (mITT population). In Study B, a total of 1,686 patients were randomized to double-blind treatment (ITT population), and 1,465 patients took at least 1 dose of double-blind IP (safety population). A total of 1355 treated patients recorded a baseline migraine headache severity measurement and at least 1 postdose migraine headache severity or migraine-associated symptom measurement within 2 hours after dosing (mITT population). The coprimary efficacy endpoints for the United States were pain freedom (PF) at 2 hours after the initial dose, defined as a reduction in headache severity from moderate/severe at baseline to no pain, at 2 hours after the initial dose and absence of the most bothersome migraine-associated symptom at 2 hours after the initial dose. The most bothersome migraine-associated symptom was identified at baseline for each patient.

[2] = Study A: randomized, double-blind, placebo-controlled study, acute treatment of a single migraine attack; type: in vivo, human; conditions: for Absence of Most-Bothersome Migraine Associated Symptom at 2 hours after the initial dose: Odds Ratio (95% CI) / Pain Freedom at 2 hours after the initial dose: Odds Ratio (95% CI): mITT
Experimental: as §1

[3] = 25 mg vs placebo, Triptan Insufficient Responder
[4] = 25 mg vs placebo, Triptan Responder
[5] = 25 mg, Triptan Insufficient Responder, N1=100, mITT
[6] = 50 mg vs placebo, Triptan Insufficient Responder
[7] = 50 mg vs placebo, Triptan Naïve
[8] = 50 mg vs placebo, Triptan Responder
[9] = 50 mg, Triptan Insufficient Responder, N1=110, mITT
[10] = 50 mg, Triptan Responder, N1=160, mITT
[11] = 100 mg vs placebo, Triptan Insufficient Responder
[12] = 100 mg vs placebo, Triptan Naïve
[13] = 100 mg vs placebo, Triptan Responder
[14] = 100 mg, Triptan Insufficient Responder, N1=126, mITT
[15] = 100 mg, Triptan Naïve, N1=149, mITT
[16] = 100 mg, Triptan Responder, N1=173, mITT

For `C[C@@H]1[C@H](c2ccccc2)C[C@H](NC(=O)c2cnc3c(c2)C[C@@]2(C3)C(=O)Nc3ncccc32)C(=O)N1CC(F)(F)F` [Ubrogepant, ubrogepant], the “Absence of Most-Bothersome Migraine Associated Symptom at 2 hours after the initial dose: Odds Ratio (95% CI)” value (from here on “Absence … Odds Ratio (95% CI)”) [1, 3] was 1.65, the “Pain Freedom at 2 hours after the initial dose: Odds Ratio (95% CI)” value (“Pain Freedom at 2 hours … Odds Ratio (95% CI)” for short) [1, 3] was 1.81 and the “Absence … Odds Ratio (95% CI)” value ([1]; 25 mg vs placebo, Triptan Naive) was 1.32. For the same molecule, the “Pain Freedom at 2 hours … Odds Ratio (95% CI)” value ([1]; 25 mg vs placebo, Triptan Naïve) was 1.50, the “Absence … Odds Ratio (95% CI)” value [1, 4] was 1.26 and the “Pain Freedom at 2 hours … Odds Ratio (95% CI)” value [1, 4] was 1.52. The “Absence of Most-Bothersome Migraine Associated Symptom at 2 hours after the initial dose: Responder rate (in parentheses)” value (shortened to “Absence … (in parentheses)”) [1, 5] was “(37.0)”, the “Pain Freedom at 2 hours after the initial dose: Responder rate (in parentheses)” value (from here on “Pain Freedom at 2 hours … (in parentheses)”) [1, 5] was “(18.0)” and the “Absence … (in parentheses)” value ([1]; 25 mg, Triptan Naive, N1=184, mITT) was “(34.2)”. The “Pain Freedom at 2 hours … (in parentheses)” value ([1]; 25 mg, Triptan Naïve, N1=184, mITT) was “(25.5)”, the “Absence … (in parentheses)” value ([1]; 25 mg, Triptan Responder, N1=150, mITT) was “(32.0)” and the “Pain Freedom at 2 hours … (in parentheses)” value ([1]; 25 mg, Triptan Responder, N1=151, mITT) was “(16.6)”. For the same molecule, the “Absence … Odds Ratio (95% CI)” value [1, 6] was 1.72, the “Pain Freedom at 2 hours … Odds Ratio (95% CI)” value [1, 6] was 1.97 and the “Absence … Odds Ratio (95% CI)” value ([1]; 50 mg vs placebo, Triptan Naive) was 1.54. For the same molecule, the “Pain Freedom at 2 hours … Odds Ratio (95% CI)” value [1, 7] was 1.22, the “Absence … Odds Ratio (95% CI)” value [1, 8] was 1.76 and the “Pain Freedom at 2 hours … Odds Ratio (95% CI)” value [1, 8] was 2.19. The “Absence … (in parentheses)” value [1, 9] was “(38.2)”, the “Pain Freedom at 2 hours … (in parentheses)” value [1, 9] was “(19.1)” and the “Absence … (in parentheses)” value ([1]; 50 mg, Triptan Naive, N1=193, mITT) was “(39.4)”. For the same molecule, the “Pain Freedom at 2 hours … (in parentheses)” value ([1]; 50 mg, Triptan Naïve, N1=194, mITT) was “(23.2)”, the “Absence … (in parentheses)” value [1, 10] was “(38.8)” and the “Pain Freedom at 2 hours … (in parentheses)” value [1, 10] was “(21.9)”. The “Absence … Odds Ratio (95% CI)” value [2, 6] was 1.80, the “Pain Freedom at 2 hours … Odds Ratio (95% CI)” value [2, 6] was 2.41 and the “Absence … Odds Ratio (95% CI)” value [2, 7] was 1.48. For the same molecule, the “Pain Freedom at 2 hours … Odds Ratio (95% CI)” value [2, 7] was 1.60, the “Absence … Odds Ratio (95% CI)” value [2, 8] was 1.85 and the “Pain Freedom at 2 hours … Odds Ratio (95% CI)” value [2, 8] was 1.86. For the same molecule, the “Absence … (in parentheses)” value ([2]; 50 mg, Triptan Insufficient Responder, N1=116, mITT) was “(33.6)”, the “Pain Freedom at 2 hours … (in parentheses)” value ([2]; 50 mg, Triptan Insufficient Responder, N1=118, mITT) was “(13.6)” and the “Absence … (in parentheses)” value ([2]; 50 mg, Triptan Naïve, N1=132, mITT) was “(42.4)”. The “Pain Freedom at 2 hours … (in parentheses)” value ([2]; 50 mg, Triptan Naïve, N1=133, mITT) was “(24.8)”, the “Pain Freedom at 2 hours … (in parentheses)” value ([2]; 50 mg, Triptan Responder, N1=171, mITT) was “(18.7)” and the “Absence … (in parentheses)” value ([2]; 50 mg, Triptan Responder, N1=172, mITT) was “(39.0)”. The “Absence … Odds Ratio (95% CI)” value [2, 11] was 1.50, the “Pain Freedom at 2 hours … Odds Ratio (95% CI)” value [2, 11] was 2.49 and the “Absence … Odds Ratio (95% CI)” value [2, 12] was 1.22. For the same molecule, the “Pain Freedom at 2 hours … Odds Ratio (95% CI)” value [2, 12] was 1.26, the “Absence … Odds Ratio (95% CI)” value [2, 13] was 2.18 and the “Pain Freedom at 2 hours … Odds Ratio (95% CI)” value [2, 13] was 2.89. For the same molecule, the “Absence … (in parentheses)” value [2, 14] was “(30.2)”, the “Pain Freedom at 2 hours … (in parentheses)” value [2, 14] was “(14.3)” and the “Absence … (in parentheses)” value [2, 15] was “(37.6)”. The “Pain Freedom at 2 hours … (in parentheses)” value [2, 15] was “(20.8)”, the “Absence … (in parentheses)” value [2, 16] was “(43.4)” and the “Pain Freedom at 2 hours … (in parentheses)” value [2, 16] was “(26.6)”.
